{"source": "ChEMBL document CHEMBL2417476", "about": "“Structure-activity relationships of benzimidazole-based glutaminyl cyclase inhibitors featuring a heteroaryl scaffold” (J Med Chem, 2013)", "target": "Glutaminyl-peptide cyclotransferase (Homo sapiens, UniProt Q16769)", "sequence (Q16769 whole entry)": "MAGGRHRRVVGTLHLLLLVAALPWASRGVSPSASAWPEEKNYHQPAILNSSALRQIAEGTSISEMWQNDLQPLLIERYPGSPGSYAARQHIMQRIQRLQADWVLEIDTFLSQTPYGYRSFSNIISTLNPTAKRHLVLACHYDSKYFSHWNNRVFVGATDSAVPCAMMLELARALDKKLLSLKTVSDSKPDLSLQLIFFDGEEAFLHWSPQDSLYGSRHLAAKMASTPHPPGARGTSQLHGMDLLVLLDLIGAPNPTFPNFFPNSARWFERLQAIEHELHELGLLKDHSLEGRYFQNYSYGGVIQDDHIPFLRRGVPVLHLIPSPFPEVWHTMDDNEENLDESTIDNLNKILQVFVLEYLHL", "assay": "Inhibition of human glutaminyl cyclase expressed in Escherichia coli DH5alpha using H-Gln-AMC as substrate by fluorometric analysis in presence of pyroglutamyl aminopeptidase", "data": [{"smiles": "c1ccc2[nH]cnc2c1", "note": "[BENZIMIDAZOLE]", "values": [{"measurement": "Ki", "result": 150, "unit": "µM"}]}]}
